Assay results from a compilation of properties of binary mixtures (doi:10.1016/j.jct.2020.106093).

Experiment: xn = mol fraction of the nth substance listed
Settings: 100.9 kPa

CC(=O)[O-].CC[NH2+]CC + O
Settings	electrical conductivity [S/m]	speed of sound [m/s]	viscosity [mPa·s]
313.15 K, x1 = 0.351	–	–	19.49
313.15 K, x1 = 0.708	–	1494	–
313.15 K, x1 = 0.714	–	–	33.5
313.15 K, x1 = 0.835	–	1461	–
313.15 K, x1 = 0.84	–	–	34
315.65 K, x1 = 0.015	–	–	0.904
315.65 K, x1 = 0.055	–	–	1.89
315.65 K, x1 = 0.24	–	–	11.59
315.65 K, x1 = 0.351	–	–	17.57
315.65 K, x1 = 0.549	–	–	26.3
315.65 K, x1 = 0.84	–	–	30.6
318.15 K, x1 = 0.015	4.74	1608	0.862
318.15 K, x1 = 0.054	8.13	–	–
318.15 K, x1 = 0.055	–	1732	1.774
318.15 K, x1 = 0.119	–	1782	3.94
318.15 K, x1 = 0.12	5.91	–	–
318.15 K, x1 = 0.168	4.05	1758	6.11
318.15 K, x1 = 0.24	2.51	1699	10.54
318.15 K, x1 = 0.35	–	1636	–
318.15 K, x1 = 0.351	–	–	15.87
318.15 K, x1 = 0.549	–	1526	23.7
318.15 K, x1 = 0.55	0.767	–	–
318.15 K, x1 = 0.708	–	1479	–
318.15 K, x1 = 0.714	0.609	–	27.2
318.15 K, x1 = 0.835	–	1446	–
318.15 K, x1 = 0.838	0.498	–	–
318.15 K, x1 = 0.84	–	–	27.6
318.15 K, x1 = 0.945	0.476	–	–
320.65 K, x1 = 0.015	–	–	0.826
320.65 K, x1 = 0.055	–	–	1.67
320.65 K, x1 = 0.119	–	–	3.65
320.65 K, x1 = 0.168	–	–	5.63
320.65 K, x1 = 0.24	–	–	9.62
320.65 K, x1 = 0.351	–	–	14.41
320.65 K, x1 = 0.549	–	–	21.5
320.65 K, x1 = 0.714	–	–	24.6
320.65 K, x1 = 0.84	–	–	25
323.15 K, x1 = 0.015	–	1610	0.795
323.15 K, x1 = 0.055	–	1725	1.576
323.15 K, x1 = 0.119	–	1768	3.4
323.15 K, x1 = 0.168	–	1744	5.21
323.15 K, x1 = 0.24	–	1685	8.81
323.15 K, x1 = 0.35	–	1622	–
323.15 K, x1 = 0.351	–	–	13.12
323.15 K, x1 = 0.549	–	1512	19.55
323.15 K, x1 = 0.708	–	1464	–
323.15 K, x1 = 0.714	–	–	22.3
323.15 K, x1 = 0.835	–	1430	–
323.15 K, x1 = 0.84	–	–	22.7
325.65 K, x1 = 0.015	–	–	0.757
325.65 K, x1 = 0.055	–	–	1.489
325.65 K, x1 = 0.119	–	–	3.17
325.65 K, x1 = 0.168	–	–	4.82
325.65 K, x1 = 0.24	–	–	8.09
325.65 K, x1 = 0.351	–	–	11.97
325.65 K, x1 = 0.549	–	–	17.76
325.65 K, x1 = 0.714	–	–	20.3
325.65 K, x1 = 0.84	–	–	20.6
328.15 K, x1 = 0.055	–	–	1.411
328.15 K, x1 = 0.119	–	–	2.97
328.15 K, x1 = 0.168	–	–	4.48
328.15 K, x1 = 0.24	–	–	7.45
328.15 K, x1 = 0.351	–	–	10.96
328.15 K, x1 = 0.714	–	–	18.53
328.15 K, x1 = 0.84	–	–	18.78
330.65 K, x1 = 0.24	–	–	6.88
330.65 K, x1 = 0.351	–	–	10.06
330.65 K, x1 = 0.549	–	–	14.78
330.65 K, x1 = 0.714	–	–	16.94
330.65 K, x1 = 0.84	–	–	17.14
333.15 K, x1 = 0.015	7.37	–	0.666
333.15 K, x1 = 0.054	13.1	–	–
333.15 K, x1 = 0.055	–	–	1.273
333.15 K, x1 = 0.12	8.77	–	–
333.15 K, x1 = 0.168	5.75	–	3.89
333.15 K, x1 = 0.24	3.65	–	6.37
333.15 K, x1 = 0.353	2	–	–
333.15 K, x1 = 0.549	–	–	13.57
333.15 K, x1 = 0.714	0.802	–	15.52
333.15 K, x1 = 0.838	0.666	–	–
333.15 K, x1 = 0.945	0.65	–	–
335.65 K, x1 = 0.015	–	–	0.641
335.65 K, x1 = 0.055	–	–	1.213
335.65 K, x1 = 0.119	–	–	2.45
335.65 K, x1 = 0.24	–	–	5.91
335.65 K, x1 = 0.351	–	–	8.55
335.65 K, x1 = 0.549	–	–	12.48
335.65 K, x1 = 0.714	–	–	14.25
335.65 K, x1 = 0.84	–	–	14.39
338.15 K, x1 = 0.015	–	–	0.617
338.15 K, x1 = 0.055	–	–	1.159
338.15 K, x1 = 0.119	–	–	2.31
338.15 K, x1 = 0.168	–	–	3.4
338.15 K, x1 = 0.24	–	–	5.49
338.15 K, x1 = 0.351	–	–	7.91
338.15 K, x1 = 0.549	–	–	11.5
338.15 K, x1 = 0.714	–	–	13.11
338.15 K, x1 = 0.84	–	–	13.23
340.65 K, x1 = 0.015	–	–	0.595
340.65 K, x1 = 0.055	–	–	1.108
340.65 K, x1 = 0.119	–	–	2.18
340.65 K, x1 = 0.24	–	–	5.12
340.65 K, x1 = 0.351	–	–	7.33
340.65 K, x1 = 0.549	–	–	10.62
340.65 K, x1 = 0.714	–	–	12.08
340.65 K, x1 = 0.84	–	–	12.19
343.15 K, x1 = 0.015	–	–	0.574
343.15 K, x1 = 0.119	–	–	2.06
343.15 K, x1 = 0.168	–	–	3
343.15 K, x1 = 0.24	–	–	4.78
343.15 K, x1 = 0.351	–	–	6.81
343.15 K, x1 = 0.549	–	–	9.84
343.15 K, x1 = 0.714	–	–	11.16
343.15 K, x1 = 0.84	–	–	11.24
348.15 K, x1 = 0.007	3.01	–	–
348.15 K, x1 = 0.015	10.1	–	–
348.15 K, x1 = 0.054	16.6	–	–
348.15 K, x1 = 0.12	10.6	–	–
348.15 K, x1 = 0.168	7.47	–	–
348.15 K, x1 = 0.24	4.92	–	–
348.15 K, x1 = 0.945	1.09	–	–
363.15 K, x1 = 0.007	3.4	–	–
363.15 K, x1 = 0.015	12.9	–	–
363.15 K, x1 = 0.054	17.4	–	–
363.15 K, x1 = 0.12	11.6	–	–
363.15 K, x1 = 0.24	5.47	–	–
363.15 K, x1 = 0.353	3.65	–	–
363.15 K, x1 = 0.55	2.24	–	–
363.15 K, x1 = 0.714	1.67	–	–
363.15 K, x1 = 0.838	1.32	–	–
